Values quoted from earlier work, collected in article PMC3212850 (ACS Medicinal Chemistry Letters, 2011).

Test system: cell lines

apratoxin B
activity relative to apratoxin A: reduces activity
